Data reported in patent US20100152188A1, “Novel Heterocyclic Compounds” (priority 2005, published 2010).
Like-named read-outs stand apart in the source and are kept apart here.

What was measured:
[1] = tested on: NCIH460, HCT116, MDAMB-231/U 251; assay: Anti-cancer screen, mean GI50 over the cell lines; assay type: cell-based; conditions: in µM
Experimental: (§1) Experimental drugs are screened for anti-cancer activity in three cell lines for their GI50, TGI and LC50 values (using five concentrations for each compound). The cell lines are maintained in DMEM containing 10% fetal bovine serum. 96 well micro titer plates are inoculated with cells in 100 µL for 24 hours at 37° C., 5% CO2, 95% air and 100% relative humidity. 5000 HCT 116 cells/well, 5000 NCIH 460 cells/well and 5000 U251 cells/well are plated. A separate plate with these cell lines is also inoculated to determine cell viability before the addition of the compounds (T0).
(§2) Following 24-hour incubation, experimental drugs are added to the 96 well plates. Each plate contains one of the above cell lines and the following in triplicate: five different concentrations (0.01, 0.1, 1, 10 and 100 µM) of four different compounds, appropriate dilutions of a cytotoxic standard and control (untreated) wells. Compounds are dissolved in DMSO to make 20 mM stock solutions on the day of drug addition and frozen at −20° C. Serial dilutions of these 20 mM stock solutions are made in complete growth medium such that 100 µL of these drug solutions in medium, of final concentrations equaling 0.01, 0.1, 1, 10 and 100 µM can be added to the cells in triplicate. Standard drugs whose anti-cancer activity has been well documented and which are regularly used are doxorubicin and SAHA.
(§3) For T0 measurement, 24 hours after seeding the cells, 10 µL of 3-(4,5-Dimethyl-2-thiazolyl)-2,5-diphenyl-2H-tetrazolium (MTT) solution per well is added and incubation carried out for 3 hours at 37° C., 5% CO2, 95% air and 100% relative humidity, protected from light. Cells incubated with compounds for 48 hours are treated similarly except with the addition of 20 µl MTT solution per well and a subsequent incubation under the same conditions. After 3 hours of MTT incubation, well contents are aspirated carefully followed by addition of 150 µL DMSO per well. Plates are agitated to ensure solution of the formazan crystals in DMSO and absorbance read at 570 nm.
(§4) Percent growth is calculated for each compound's concentration relative to the control and zero measurement wells (T0; viability right before compound addition). If a test well's O.D. value is greater than the T0 measurement for that cell line

[2] = tested on: NCIH460; assay: Anti-cancer screen (MTT), NCIH460; assay type: cell-based; conditions: Homo sapiens, NCI-H460, 48 hours with compound, tested at 0.01-100 µM
Experimental: as §1, §2, §3, §4
(§5) %Growth=(test−zero)/(control−zero)×100
(§6) If a test well's O.D. value is lower than the T0 measurement for that cell line, then,
(§7) %Growth=(test−zero)/zero×100

[3] = tested on: HDAC; assay: HDAC inhibition; assay type: biochemical; conditions: for HDAC Inhibition 1 μM: compound at 1 μM; for HDAC Inhibition 10 μM: compound at 10 μM
[4] = tested on: MDAMB-231/U 251; assay: Anti-cancer screen (MTT), MDAMB-231/U 251; assay type: cell-based; conditions: for CC50: read-out: MDAMB-231/U 251 LC50
Experimental: as §1, §2, §3, §4, §5, §6, §7

[5] = tested on: HCT116; assay: Anti-cancer screen (MTT), HCT116; assay type: cell-based; conditions: Homo sapiens, HCT-116, 48 hours with compound, tested at 0.01-100 µM; for CC50: read-out: HCT116 LC50
Experimental: as §1, §2, §3, §4, §5, §6, §7

[6] = 48 hours with compound, MTT, tested at 0.01-100 µM

| SMILES | Mean GI50 [1] | GI50 [2] [µM] | IC (TGI) [2] [µM] | LC50 [2] [µM] | HDAC Inhibition 1 μM [3] | CC50 ([4]; 48 h) [µM] | GI50 [4, 6] [µM] | IC (TGI) [4, 6] [µM] | GI50 [5] [µM] | IC (TGI) [5] [µM] | LC50 (concentration giving 50% net cell kill relative to T0) [5] [µM] | HDAC Inhibition 10 μM [3] | CC50 [4, 6] [µM] | CC50 [5] [µM] | IC50 [3] [µM] |
| --- | --- | --- | --- | --- | --- | --- | --- | --- | --- | --- | --- | --- | --- | --- | --- |
| O=C(NCc1ccc(C(=O)Nc2nnc(C(F)(F)F)s2)cc1)OCc1cccs1 [Example 59, 2-Thienylmethyl[4-({[5-(trifluoromethyl)-1,3,4-thiadiazol-2-yl]amino}carbonyl)benzyl]carbamate] | 63.5 | 53 | 95 | > 100 | 14.41 | > 100 | 74 | > 100 | > 100 | > 100 | > 100 | – | – | – | – |
| O=C(Cc1csc(NC(=O)OCc2ccc(Br)s2)n1)NO [Example 6, (5-Bromo-2-thienyl)methyl{4-[2-(hydroxyamino)-2-oxoethyl]-1,3-thiazol-2-yl}carbamate] | 24 | 2 | 80 | > 100 | 8.8 | – | 5 | 82 | 65 | > 100 | – | 47.27 | > 100 | > 100 | – |
| O=C(Cc1csc(NC(=O)c2ccc(CNC(=O)OCc3cccs3)cc2)n1)NO [Example 101, 2-Thienylmethyl{4-[({4-[2-(hydroxyamino)-2-oxoethyl]-1,3-thiazol-2-yl}amino)carbonyl]benzyl}carbamate] | >100 | > 100 | > 100 | > 100 | 8.52 | > 100 | > 100 | > 100 | 14 | > 100 | > 100 | 45.50 | – | – | – |
| O=C(NCc1ccc(C(=O)Nc2ccccc2NC(=O)c2ccc3c(c2)OCO3)cc1)OCc1cccs1 [Example 106, 2-thienylmethyl(4-[({(2-{1,3-benzodioxol-5-ylcarbonyl}amino)-phenyl}amino)carbonyl]benzyl)carbamate] | 2.8 | 0.44 | 107 | > 100 | 2.1 | > 100 | 5.2 | > 100 | > 100 | > 100 | > 100 | 7.2 | – | – | – |
| O=C(CCCNC(=O)Cc1csc(NC(=O)OCc2ccncc2)n1)NO [Example 97, Pyridin-4-ylmethyl[4-(2-{[4-(hydroxyamino)-4-oxobutyl]amino}-2-oxoethyl)-1,3-thiazol-2-yl]carbamate] | >100 | 100 | > 100 | > 100 | 5.02 | > 100 | > 100 | > 100 | > 100 | > 100 | > 100 | 5.80 | – | – | – |
| COC(CNC(=O)c1ccc(CNC(=O)OCc2cccs2)cc1)OC [Example 53, 2-Thienylmethyl (4-{[(2,2-dimethoxyethyl)amino]carbonyl}benzyl)carbamate] | 2.4 | 0.02 | 1 | > 100 | 4.3 | > 100 | 7.1 | > 100 | 0.12 | 6.1 | > 100 | 1.6 | – | – | – |
| O=C(NCc1ccc(C(=O)N2CCC(N3CCCCC3)CC2)cc1)OCC1COc2ccccc2O1 (stereo not shown) [Example 60, 2,3-Dihydro-1,4-benzodioxin-2-ylmethyl[{4-(piperidinopiperidin-1-yl)carbonyl}benzyl]carbamate] | 36 | 7 | 83 | > 100 | 1.4 | > 100 | > 100 | > 100 | 65 | > 100 | > 100 | – | – | – | – |
| O=C(NCc1ccc(C(=O)NO)cc1)OCc1nc2ccccc2s1 [Example 30, 1,3-Benzothiazol-2-ylmethyl{4-[(hydroxyamino)carbonyl]benzyl}carbamate] | 0.3 | 0.02 | 0.05 | 73 | 84 | > 100 | 0.78 | > 100 | 0.23 | 7 | 61 | 84.6 | – | – | 0.14 |
| Nc1ccccc1NC(=O)Cc1csc(NC(=O)OCc2nccs2)n1 [Example 23, 1,3-Thiazol-2-ylmethyl(4-{2-[(2-aminophenyl)amino]-2-oxoethyl}-1,3-thiazol-2-yl)carbamate] | >100 | > 100 | > 100 | > 100 | 11.34 | > 100 | 31 | > 100 | > 100 | > 100 | > 100 | 5.18 | – | – | – |
| O=C(NCc1ccc(C(=O)Nc2nnc(C3CC3)s2)cc1)OCc1nccs1 [Example 65, 1,3-Thiazol-2-ylmethyl(4-{[(5-cyclopropyl-1,3,4-thiadiazol-2-yl)amino]carbonyl}benzyl)carbamate] | 17.67 | 12 | 85 | > 100 | 11.65 | > 100 | 5 | 45 | 36 | > 100 | > 100 | 8.84 | – | – | – |
| O=C(Nc1ccc(C(=O)NO)o1)OCc1ccccc1 [Example 75, Benzyl{5-[(hydroxyamino)carbonyl]-2-furyl}carbamate] | >100 | 100 | > 100 | > 100 | – | > 100 | 9 | 85 | > 100 | > 100 | > 100 | 6.61 | – | – | – |
| CCOC(=O)Cc1csc(NC(=O)c2ccc(CNC(=O)OCc3cccs3)cc2)n1 [Example 54, Ethyl{2-[(4-{[(2-thienylmethyloycarbonyl)amino]methyl}benzoyl)amino]-1,3-thiazol-4-yl}acetate] | 1.1 | 0.05 | 0.8 | 91 | 0.6 | > 100 | 0.2 | 62 | 3 | 9.3 | 97 | 8.1 | – | – | – |
| Cc1ncsc1COC(=O)Nc1nc(CC(=O)NO)cs1 [Example 8, (4-Methyl-1,3-thiazol-5-yl)methyl{4-[2-(hydroxyamino)-2-oxoethyl]-1,3-thiazol-2-yl}carbamate] | >100 | > 100 | > 100 | > 100 | 0.96 | – | 0.5 | > 100 | > 100 | > 100 | – | 17.80 | > 100 | > 100 | – |
| O=C(NCc1ccc(C(=O)NO)cc1)OCC1COc2ccccc2O1 (stereo not shown) [Example 32, 2,3-Dihydro-1,4-benzodioxin-2-ylmethyl {4-[(hydroxyamino)carbonyl]benzyl}carbamate] | 7 | 5 | 42 | 95 | 78.12 | 80 | 11 | 45 | 5 | 25 | > 100 | 92.67 | – | – | – |
